pIC50: −log10 of the molar value. Where a name gives a salt, the structure may show the parent alone.
Key:
[1] = system: vertebral artery blood flow; assay: Cerebral vasodilating activity: vertebral artery blood flow in anesthetized dogs, injection into vertebral artery (Experiment 1); type: in vivo; settings: for Cerebral vasodilating activity (potency ratio to papaverin, class): anesthetized male dogs, injected into vertebral artery, Table 1
Method: (§1) For example, when the cerebral vasodilating activity is evaluated by examining vertebral artery blood flow in anesthetized dogs to which a test compound is intraarterially administered, said activity of (+)-cis-2-(4-methoxyphenyl)-3-(2-chloro-4-nitrobenzoyloxy)-5-[2-(dimethylamino)ethyl]-2,3-dihydro-1,5-benzothiazepin-4-(5H)-one fumarate is 4.5 times stronger than that of papaverine. On the other hand, the coronary vasodilating activity of (+)-cis-2-(4-methoxyphenyl)-3-(2-chloro-4-nitrobenzoyloxy)-5-[2-(dimethylamino)ethyl]-2,3-dihydro-1,5-benzothiazepin-4(5H)-one fumarate when examined by the Langendorff method using isolated hearts of guinea pigs is 10 times stronger than that of papaverine.
(§2) (Cerebral vasodilating activity)
Male dogs weighing 10 to 20 kg were anesthetized with sodium pentobarbital (30 mg/kg, intravenous injection). The blood flow in vertebral artery was measured continuously by means of an electromagnetic flowmeter under artificial respiration. A test compound dissolved in an aqueous 5% glucose solution was injected into vertebral artery. The cerebral vasodilating activity of the test compound was estimated in terms of "the potency ratio of said compound to papaverin" which was calculated from the dose-responsecurves thereof.

calmodulin = calmodulin (Homo sapiens, UniProt P0DP23); assay: Anti-calmodulin activity: activation of phosphodiesterase activity by calmodulin (Experiment 5); type: biochemical; settings: pH 7.5, 30° C.; Table 4; read-out: ID50 (concentration for 50% inhibition of the activation of phosphodiesterase activity by calmodulin)
[2] = system: coronary blood flow of the isolated heart; assay: Coronary vasodilating activity: Langendorff's method, coronary blood flow of isolated heart (Experiment 3); set-up: species or system guinea pig; settings: for Coronary vasodilating activity (class): isolated guinea pig heart, Langendorff, Table 2
Method: as §1
Langendorff's method was used for testing the effect on the coronary blood flow of the isolated heart of guinea pig (about 280 g). The isolated heart was perfused with Locke-Ringer solution containing 2% of defibrinated rabbit blood, which had been saturated with a mixed gas of 95% O2 and 5% CO2 (30° C.). Perfusion pressure was kept at 40 cm H2 O. A solution of a test compound in an aqueous 5% glucose solution was injected into the perfusing solution at a volume of 0.1 ml per heart. The outflow of the perfusate was measured by means of a drop counter.
The coronary vasodilating activity of the test compound was expressed as "±" if the increase in coronary blood flow is less than 0.5 ml/minute at a dose of 100 μg/heart; "+" if the increase is not less than 0.5 ml/minute at a dose of 100 μg/heart; "++" if the increase is not less than 0.5 ml/minute at a dose of 30 μg/heart; and "+++" if the increase is not less than 0.5 ml/minute at a dose of not more than 10 μg/heart.

platelet aggregation = assay: Platelet aggregation-inhibiting activity, collagen, platelet-rich plasma (Experiment 4); type: cell-based, Sprague-Dawley rats; set-up: key: -: the test compound showed less than 10% inhibition of platelet aggregation; +: the test compound showed not less than 10% inhibition of platelet aggregation but said percentage inhibition was lower than that of acetylsalicylic acid (100 μg/ml); ++: the test compound showed the platelet aggregation-inhibiting activity at least as strong as that of acetylsalicylic acid (100 μg/ml); settings: final concentration 100 μg/ml, rat PRP, 37° C., Table 3
Source text: Blood was collected from the abdominal aorta of male Sprague-Dawley rats which were anesthetized with ether. Nine volumes of said blood were mixed with one volume of an aqueous 3.8% (w/v) trisodium citrate solution, and the mixture was centrifuged to give platelet-rich plasma ("PRP") as the supernatant solution. The bottom layer was further centrifuged to give platelet-poor plasma ("PPP") as the supernatant solution. Platelet counts were adjusted to 0.8-1×10^6 /mm^3 for PRP by dilution with PPP. After a mixture of 200 μl of the diluted PRP and 25 μl of a test compound solution (final concentration: 100 μg/ml) was stirred for 2 minutes at 37° C., 25 μl of a collagen solution (Biochim. Biophys. Acta, 186, page 254(1969)) were added thereto. The degree of platelet aggregation was estimated by Born's method (Nature, 194, page 927(1962)) and percentage inhibition of platelet aggregation was calculated therefrom.

[3] = system: cerebral and/or coronary vasodilating activity; settings: Japanese Patent Publication Nos. 43784/1971 and 8544/1972; cited from earlier work
[4] = system: atrioventricular conduction; settings: known calcium-antagonistic vasodilator; cited from earlier work
Acute toxicity, oral = settings: mouse, in vivo, mice, orally
Source text: The compound (I) is further characteristic in that said compound is low in toxicity. For example, the acute toxicity (LD50) of (+)-cis-2-(4-methoxyphenyl)-3-(2-chloro-4-nitrobenzoyloxy)-5-[2-(dimethylamino)ethyl]-2,3-dihydro-1,5-benzothiazepin-4(5H)-one fumarate, when administered to mice orally, is more than 2 g/kg.

vertebral blood flow = assay: Cerebral vasodilating activity: total increase in vertebral blood flow in anesthetized dogs, intravenous (Experiment 2); type: in vivo; settings: anesthetized male dogs, 0.2 mg/kg intravenously; increase at peak response x half duration time
Method: as §2
Male dogs weighing 11 to 16 kg (one group: 3 dogs) were anesthetized with sodium pentobarbital (30 mg/kg, intravenous injection). The vertebral blood flow was measured by means of an electromagnetic flowmeter under artificial respiration. A test compound dissolved in an aqueous 5% glucose solution was injected intravenously at a dose of 0.2 mg/kg. The cerebral vasodilating activity of the test compound was estimated in terms of "total increase in vertebral blood flow" which was calculated by multiplying "increase (Δml/minute) in blood flow at peak response" by "half duration time (T 1/2:minute)".

cerebral ischemia = assay: Protective effect on cerebral ischemia: recovery of electrocorticogram activity after occlusion of common carotid and vertebral artery; type: in vivo; settings: rats, 0.1 mg/kg/minute intravenously, within one hour after reestablishment of cerebral blood flow
[5] = system: atrioventricular conduction; assay: Atrioventricular conduction in anesthetized guinea pigs, intravenous; type: in vivo; settings: 3 mg/kg intravenously

SMILES | Cerebral vasodilating activity (potency ratio to papaverin, class) [1] | pIC50 (calmodulin) | Coronary vasodilating activity (class) [2] | Platelet aggregation-inhibiting activity (class) (platelet aggregation) | further results
COc1ccc([C@@H]2Sc3ccccc3N(CCN(C)C)C(=O)[C@@H]2OC(=O)c2ccc([N+](=O)[O-])c(C)c2)cc1.Cl [(+)-cis-2-(4-methoxyphenyl)-3-(3-methyl-4-nitrobenzoyloxy)-5-[2-(dimethylamino)ethyl]-2,3-dihydro-1,5-benzothiazepin-4(5H)-one hydrochloride] | +++ (the potency ratio is not less than 3) | 5.60 | +++ (the increase is not less than 0.5 ml/minute at a dose of not more than 10 μg/heart) | ++ | –
COc1ccc([C@@H]2Sc3ccccc3N(CCN(C)C)C(=O)[C@@H]2OC(=O)c2ccc(Cl)cc2[N+](=O)[O-])cc1.Cl [(+)-cis-2-(4-methoxyphenyl)-3-(4-chloro-2-nitrobenzoyloxy)-5-[2-(dimethylamino)ethyl]-2,3-dihydro-1,5-benzothiazepin-4(5H)-one hydrochloride] | +++ (the potency ratio is not less than 3) | – | +++ (the increase is not less than 0.5 ml/minute at a dose of not more than 10 μg/heart) | – | –
COc1ccc(C2Sc3ccccc3N(CCN(C)C)C(=O)C2OCc2ccccc2)cc1 (stereo not shown) [2-(4-methoxyphenyl)-3-benzyloxy-5-[2-(dimethylamino)ethyl]-2,3-dihydro-1,5-benzothiazepin-4(5H)-one] | – | – | – | – | coronary vasodilating activity (known) [3]: have a coronary vasodilating activity
COc1ccc(CCN(C)CCCC(C#N)(c2ccc(OC)c(OC)c2)C(C)C)cc1OC (stereo not shown) [verapamil, 5-[(3,4-dimethoxyphenethyl)methylamino]-2-(3,4-dimethoxyphenyl)-2-isopropylvaleronitrile] | – | – | – | – | effect on atrioventricular conduction (known) [4]: inhibits atrioventricular conduction to cause the prolongation of atrioventricular conduction time
COc1ccc([C@@H]2Sc3ccccc3N(CCN(C)C)C(=O)[C@@H]2OC(=O)c2ccc([N+](=O)[O-])c(OC)c2)cc1 [(+)-cis-2-(4-methoxyphenyl)-3-(3-methoxy-4-nitrobenzoyloxy)-5-[2-(dimethylamino)ethyl]-2,3-dihydro-1,5-benzothiazepin-4(5H)-one methanesulfonate] | – | 5.57 | – | – | –
COc1ccc([C@@H]2Sc3ccccc3N(CCN(C)C)C(=O)[C@@H]2OC(=O)c2ccccc2[N+](=O)[O-])cc1.Cl (racemic) [(±)-cis-2-(4-methoxyphenyl)-3-(2-nitrobenzoyloxy)-5-[2-(dimethylamino)ethyl]-2,3-dihydro-1,5-benzothiazepin-4(5H)-one hydrochloride] | – | – | – | ++ | –
CCN(C)CCN1C(=O)[C@H](OC(=O)c2ccc([N+](=O)[O-])cc2Cl)[C@H](c2ccc(OC)cc2)Sc2ccccc21 [(+)-cis-2-(4-methoxyphenyl)-3-(2-chloro-4-nitrobenzoyloxy)-5-[2-(N-methyl-N-ethylamino)ethyl]-2,3-dihydro-1,5-benzothiazepin-4(5H)-one oxalate] | – | 5.68 | – | – | –
COc1ccc([C@@H]2Sc3ccccc3N(CCN(C)C)C(=O)[C@@H]2OC(=O)c2ccc(Cl)c([N+](=O)[O-])c2)cc1.O=C(O)C(=O)O [(+)-cis-2-(4-methoxyphenyl)-3-(4-chloro-3-nitrobenzoyloxy)-5-[2-(dimethylamino)ethyl]-2,3-dihydro-1,5-benzothiazepin-4(5H)-one oxalate] | +++ (the potency ratio is not less than 3) | 5.85 | – | – | –
COc1ccc([C@@H]2Sc3ccccc3N(CCN(C)C)C(=O)[C@@H]2OC(=O)c2ccc([N+](=O)[O-])cc2)cc1.O=C(O)/C=C/C(=O)O [(+)-cis-2-(4-methoxyphenyl)-3-(4-nitrobenzoyloxy)-5-[2-(dimethylamino)ethyl]-2,3-dihydro-1,5-benzothiazepin-4(5H)-one fumarate] | +++ (the potency ratio is not less than 3) | 5.35 | +++ (the increase is not less than 0.5 ml/minute at a dose of not more than 10 μg/heart) | ++ | –
COc1ccc([C@@H]2Sc3ccccc3N(CCN(C)C)C(=O)[C@@H]2OC(=O)c2ccc([N+](=O)[O-])cc2)cc1.O=C(O)/C=C\C(=O)O (racemic) [(±)-cis-2-(4-methoxyphenyl)-3-(4-nitrobenzoyloxy)-5-[2-(dimethylamino)ethyl]-2,3-dihydro-1,5-benzothiazepin-4(5H)-one maleate] | – | – | +++ (the increase is not less than 0.5 ml/minute at a dose of not more than 10 μg/heart) | – | –
COc1ccc([C@@H]2Sc3ccccc3N(CCN(C)C)C(=O)[C@@H]2OC(=O)c2ccc([N+](=O)[O-])cc2Cl)cc1.O=C(O)/C=C/C(=O)O [(+)-cis-2-(4-methoxyphenyl)-3-(2-chloro-4-nitrobenzoyloxy)-5-[2-(dimethylamino)ethyl]-2,3-dihydro-1,5-benzothiazepin-4(5H)-one fumarate] | +++ (the potency ratio is not less than 3) | 5.60 | +++ (the increase is not less than 0.5 ml/minute at a dose of not more than 10 μg/heart) | ++ | cerebral vasodilating activity, times stronger than that of papaverine ([1]; vertebral artery blood flow, anesthetized dogs, intraarterial): 4.5 times; LD50 (Acute toxicity, oral): > 2000 mg/kg; total increase in vertebral blood flow (vertebral blood flow): 91 mL; recovery of electrocorticogram (ECoG) activity (cerebral ischemia): about 50%; coronary vasodilating activity, times stronger than that of papaverine ([2]; Langendorff method, isolated hearts of guinea pigs): 10 times; disturbance of atrioventricular conduction [5]: did not induce disturbance of atrioventricular conduction
COc1ccc(C2Sc3ccccc3N(CCN(C)C)C(=O)C2OC(=O)c2ccccc2)cc1 (stereo not shown) [2-(4-methoxyphenyl)-3-benzoyloxy-5-[2-(dimethylamino)ethyl]-2,3-dihydro-1,5-benzothiazepin-4(5H)-one] | – | – | – | – | coronary vasodilating activity (known) [3]: have a coronary vasodilating activity
CCN(CC)CCN1C(=O)[C@H](OC(=O)c2ccc([N+](=O)[O-])cc2Cl)[C@H](c2ccc(OC)cc2)Sc2ccccc21.Cl [(+)-cis-2-(4-methoxyphenyl)-3-(2-chloro-4-nitrobenzoyloxy)-5-[2-(diethylamino)ethyl]-2,3-dihydro-1,5-benzothiazepin-4(5H)-one hydrochloride] | +++ (the potency ratio is not less than 3) | 5.68 | – | – | –
